Data: patent publication US20210156846A1, “MICROFLUIDIC PLATFORM FOR TARGET AND BIOMARKER DISCOVERY FOR NON-ALCOHOLIC FATTY LIVER DISEASE” (Javelin Biotech, Inc., priority 2019, published 2021)

Test system: liver-adipose crosstalk MPSs
Test: Disease severity in NAFLD liver-adipose crosstalk MPS after treatment
Assay type: cell-based, human
Conditions: MHM-induced NAFLD liver-adipose crosstalk MPS; no data shown
Method: The disease modifying potential of targets is evaluated using one or both of large and small molecules and functional genomics tools, such as CRISPR. For example, large molecules can include ligand antagonists, Humira (adalimumab) blocks, and TNF-α. Healthy and NAFLD liver-adipose MPSs are established previously described. Following disease induction, the liver-adipose MPSs are treated with small molecules (alone and in combination) or CRISPR short guide RNAs (sgRNAs) that modulate the activity or expression of disease-relevant signaling pathways (e.g. CCR2-5, FXR, PPARγ, PPARβ/δ, and PPARγ) as previously described in relation to FIG. 4. The dosing regimen are optimized using the efficacy data generated using the liver and adipose spheroids previously described. The disease-modifying potential of the therapeutic treatment regimens in the liver-adipose crosstalk MPS 120 are determined using phenotypic (e.g., IR, steatosis, steatohepatitis, and fibrosis) and biomarker (apoptosis, hepatokine, adipokine, cytokine) readouts.
In the liver-adipose MPS 120, MHM induces a NAFLD phenotype in the liver (e.g., oxidative stress, steatosis, and fibrosis) and adipose tissue (e.g., steatosis) compared to MPSs cultured in healthy medium. Clinical biomarkers of NAFLD (e.g., AST, ALT, cytokeratin-18) are elevated in diseased systems compared to healthy systems. […]

Compound	severity of the steatosis, fibrosis, and insulin resistance
CCCCOCCOc1ccc(-c2ccc3c(c2)/C=C(/C(=O)Nc2ccc([S@@+]([O-])Cc4cncn4CCC)cc2)CCCN3CC(C)C)cc1 [cenicriviroc]	reduce the severity
CSc1ccc(C(=O)/C=C/c2cc(C)c(OC(C)(C)C(=O)O)c(C)c2)cc1 [elafibranor]	reduce the severity
